Patent US20250099486A1, “WOUND HEALING MEDICAMENT” (The University of Sheffield, priority 2017, published 2025)

System: CAM
Assay: Ex-ovo CAM assay, implantation of E2 and 2dDR releasing PHBV scaffolds
Assay type: in vivo, chicken (Gallus domesticus)
Settings: for mean vessel count: control 23.1 (±1.24)
Procedure: All CAM experiments were carried out according to the Home Office, UK guidelines. Fertilised chicken eggs (Gallus domesticus) were purchased from Henry Stewart & Co. (MedEggs, Norwich, UK). The eggs were carefully wiped with 20% industrial methylated spirit (IMS) solution using hand paper towels in order to remove dirt and feathers from the shell. The eggs were then incubated at 37.5° C. until embryonic development day (EDD) 3, lying horizontally in an humidified egg incubator (RCOM King SURO, P&T Poultry, Powys, Wales).
On EDD3, the upper surface of the eggs were marked with a felt pen. The eggs were held horizontally (with the marked surface on top) and cracked on the edge of a 1000 ml glass beaker and kept close to the bottom surface of petri dishes. The embryos were then transferred gently into sterile petri dishes and kept in a humidified incubator (Binder, Tuttlingen, Germany) at 38° C.
Scaffolds were cut into 5.5 mm diameter circles using a laser cutting machine (Epilog Laser Cutter, Clevedon, UK) and sterilised under UV light for 1 hour prior to implantation. Two circular scaffolds were placed on CAM at EDD8. Images of the scaffolds were acquired using a digital microscope at EDD 12 and EDD14. Microinjection of rhodamine labelled lectin into the circulation was performed, CAMs were removed and fixed in 3.7% formaldehyde solution. Embryos were then sacrificed at the end of EDD14. Angiogenesis was quantified by counting all blood vessels that converged towards the graft.
Haematoxylin and Eosin (H&E) staining was performed on cell impregnated scaffolds by modifiying a standard protocol. Briefly, fixed samples were embedded in optimal cutting temperature OCT and frozen in liquid nitrogen for 3 minutes. Sections were cut 8-10 μm thick using a cryostat (Leica Biosystems Nussloch, Germany) at −20° C. Sections were then stained with haematoxylin for 90 seconds and eosin for 5 minutes respectively. Finally H&E images were acquired under a light microscope (Motic DM-B1, Xiamen, China). The total number of blood vessels adjacent to the scaffolds were quantified by counting blood vessels in H&E sections [A. Minajeva, M. Kase, M. Saretok, A. Adamson-Raieste, S. Kase, K. Niinepuu, M Vardja, T. Asser, J. Jaal, Impact of Blood Vessel Quantity and Vascular Expression of CD133 and ICAM-1 on Survival of Glioblastoma Patients, Neurosci J. 2017 (2017) 8 pages] Briefly, all discernible blood vessels adjacent to the scaffolds were counted by two independent researchers using two independent microscopes at 10× magnification from the total of six different slides for each group and six different area of interest from each slide.

In the case of O=CC[C@H](O)[C@H](O)CO [2-deoxy-D-ribose], the mean vessel count (250 mg 2dDR loaded PHBV scaffolds) was 48.6 (±1.02), the mean vessel count (500 mg 2dDR loaded PHBV scaffolds) was 37.1 (±1.37) and the “mean number of blood vessels adjacent to the scaffolds (H&E sections)” value (all concentrations, compared with controls and CAM only groups) was “significantly increased”. For the same compound, the “number of discernible blood vessels growing towards the scaffolds in comparison with plain PHBV scaffolds” value (all groups of releasing PHBV scaffolds) was “at least doubled”.
